Results from PubChem BioAssay (NCI).
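1) Cells in 96-well plates. 2) Compound, 48 h, 5 concentrations. 3) Linear interpolation between surrounding doses. 4) Unreached endpoint = highest concentration. TGI marks complete inhibition of growth.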

What was measured:
Assay in all cases: growth of human tumour cells (NCI), 48 h
[1] = tested on: 786-0 renal
[2] = tested on: A498 renal
[3] = tested on: A549 NSCLC
[4] = tested on: ACHN renal
[5] = tested on: CAKI-1 renal
[6] = tested on: CCRF-CEM leukemia
[7] = tested on: COLO 205 colon
[8] = tested on: DU-145 prostate
[9] = tested on: EKVX NSCLC
[10] = tested on: HCC-2998 colon
[11] = tested on: HCT-116 colon
[12] = tested on: HCT-15 colon
[13] = tested on: HL-60(TB) leukemia
[14] = tested on: HOP-92 NSCLC
[15] = tested on: HT29 colon
[16] = tested on: IGROV1 ovarian
[17] = tested on: K-562 leukemia
[18] = tested on: KM12 colon
[19] = tested on: LOX IMVI melanoma
[20] = tested on: M14 melanoma
[21] = tested on: MCF7 breast
[22] = tested on: MDA-MB-231 breast
[23] = tested on: MDA-MB-435
[24] = tested on: MDA-N
[25] = tested on: MOLT-4 leukemia
[26] = tested on: NCI-H226 lung
[27] = tested on: NCI/ADR-RES ovarian
[28] = tested on: OVCAR-3 ovarian
[29] = tested on: OVCAR-4 ovarian
[30] = tested on: OVCAR-5 ovarian
[31] = tested on: OVCAR-8 ovarian
[32] = tested on: PC-3 prostate
[33] = tested on: RXF 393 renal
[34] = tested on: SF-295 CNS
[35] = tested on: SF-539 CNS
[36] = tested on: SK-MEL-2 melanoma
[37] = tested on: SK-MEL-28 melanoma
[38] = tested on: SK-MEL-5 melanoma
[39] = tested on: SK-OV-3 ovarian
[40] = tested on: SN12C renal
[41] = tested on: SNB-75 CNS
[42] = tested on: SR leukemia
[43] = tested on: SW-620 colon
[44] = tested on: TK-10 renal
[45] = tested on: U251 CNS
[46] = tested on: UACC-257 melanoma
[47] = tested on: UACC-62 melanoma
[48] = tested on: UO-31 renal
[49] = tested on: BT-549 breast
[50] = tested on: HOP-62 NSCLC
[51] = tested on: HS 578T breast
[52] = tested on: NCI-H23 lung
[53] = tested on: NCI-H460 lung
[54] = tested on: NCI-H522 lung
[55] = tested on: RPMI-8226 leukemia
[56] = tested on: SF-268 CNS
[57] = tested on: SNB-19 CNS
[58] = tested on: T-47D breast

Question: For `O=c1[nH]c(=O)n(COCc2ccccc2)c2ccc([N+](=O)[O-])cc12`, which TGI [1] is on record?
Answer: > 100 µM

Question: And the TGI [2]?
Answer: > 100 µM

Question: And the TGI [3]?
Answer: > 100 µM

Question: What about the TGI [4] of the same molecule?
Answer: > 100 µM

Question: What about the TGI [5] of the same molecule?
Answer: > 100 µM

Question: What about the TGI [6] of the same molecule?
Answer: > 100 µM

Question: What about the TGI [7] of the same molecule?
Answer: > 100 µM

Question: And the TGI [8]?
Answer: > 100 µM

Question: And the TGI [9]?
Answer: > 100 µM

Question: And the TGI [10]?
Answer: > 100 µM

Question: And the TGI [11]?
Answer: > 100 µM

Question: And the TGI [12]?
Answer: > 100 µM

Question: What about the TGI [13] of the same molecule?
Answer: > 100 µM

Question: What about the TGI [14] of the same molecule?
Answer: > 100 µM

Question: What about the TGI [15] of the same molecule?
Answer: > 100 µM

Question: What about the TGI [16] of the same molecule?
Answer: > 100 µM

Question: And the TGI [17]?
Answer: > 100 µM

Question: What about the TGI [18] of the same molecule?
Answer: > 100 µM

Question: And the TGI [19]?
Answer: > 100 µM

Question: And the TGI [20]?
Answer: > 100 µM

Question: What about the TGI [21] of the same molecule?
Answer: > 100 µM

Question: What about the TGI [22] of the same molecule?
Answer: > 100 µM

Question: What about the TGI [23] of the same molecule?
Answer: > 100 µM

Question: What about the TGI [24] of the same molecule?
Answer: > 100 µM

Question: And the TGI [25]?
Answer: > 100 µM

Question: What about the TGI [26] of the same molecule?
Answer: > 100 µM

Question: What about the TGI [27] of the same molecule?
Answer: > 100 µM

Question: And the TGI [28]?
Answer: > 100 µM

Question: What about the TGI [29] of the same molecule?
Answer: > 100 µM

Question: And the TGI [30]?
Answer: > 100 µM

Question: What about the TGI [31] of the same molecule?
Answer: > 100 µM

Question: What about the TGI [32] of the same molecule?
Answer: > 100 µM

Question: And the TGI [33]?
Answer: > 100 µM

Question: And the TGI [34]?
Answer: > 100 µM

Question: And the TGI [35]?
Answer: > 100 µM

Question: What about the TGI [36] of the same molecule?
Answer: > 100 µM

Question: And the TGI [37]?
Answer: > 100 µM

Question: And the TGI [38]?
Answer: > 100 µM

Question: What about the TGI [39] of the same molecule?
Answer: > 100 µM

Question: And the TGI [40]?
Answer: > 100 µM

Question: And the TGI [41]?
Answer: > 100 µM

Question: What about the TGI [42] of the same molecule?
Answer: > 100 µM

Question: What about the TGI [43] of the same molecule?
Answer: > 100 µM

Question: And the TGI [44]?
Answer: > 100 µM

Question: What about the TGI [45] of the same molecule?
Answer: > 100 µM

Question: What about the TGI [46] of the same molecule?
Answer: > 100 µM

Question: And the TGI [47]?
Answer: > 100 µM

Question: What about the TGI [48] of the same molecule?
Answer: > 100 µM

Question: Which results are given for `CCCn1c(=O)c2ccccc2[n+]2c(-c3ccc([N+](=O)[O-])cc3)csc12`?
Answer: TGI [1]: 76.3 µM; TGI [2]: 74.4 µM; TGI [3]: > 100 µM; TGI [4]: > 100 µM; TGI [49]: > 100 µM; TGI [5]: > 100 µM; TGI [6]: 82.5 µM; TGI [7]: > 100 µM; TGI [8]: > 100 µM; TGI [9]: > 100 µM; TGI [10]: > 100 µM; TGI [11]: > 100 µM; TGI [12]: > 100 µM; TGI [13]: 57.9 µM; TGI [50]: 80.8 µM; TGI [14]: > 100 µM; TGI [51]: > 100 µM; TGI [15]: > 100 µM; TGI [16]: > 100 µM; TGI [17]: 69.4 µM; TGI [18]: 78.3 µM; TGI [19]: 51.3 µM; TGI [20]: > 100 µM; TGI [21]: > 100 µM; TGI [22]: > 100 µM; TGI [23]: > 100 µM; TGI [24]: > 100 µM; TGI [25]: 79.9 µM; TGI [26]: > 100 µM; TGI [52]: > 100 µM; TGI [53]: > 100 µM; TGI [54]: 45.5 µM; TGI [27]: 36.5 µM; TGI [29]: > 100 µM; TGI [30]: > 100 µM; TGI [31]: 83.4 µM; TGI [32]: > 100 µM; TGI [55]: 55.7 µM; TGI [33]: 55.3 µM; TGI [56]: > 100 µM; TGI [34]: > 100 µM; TGI [35]: 49.2 µM; TGI [36]: > 100 µM; TGI [38]: 45.7 µM; TGI [39]: > 100 µM; TGI [40]: > 100 µM; TGI [57]: > 100 µM; TGI [41]: 94.6 µM; TGI [43]: > 100 µM; TGI [58]: > 100 µM; TGI [45]: > 100 µM; TGI [46]: > 100 µM; TGI [47]: > 100 µM; TGI [48]: 97.3 µM
